According to publication PMC6197257 (Scientific Reports, 2018):

Legend:
[1] = tested on: anti-3MGA MAb; assay: competitive ELISA cross-reactivity of anti-3MGA MAb; type: binding, mouse; settings: CR = IC50 for 3MGA / IC50 for compound x 100, 3MGA calibrated as 100%
Protocol: To activate the hapten 3MGA for the preparation of anti-3MGA MAb, the 3MGA-KLH conjugate was synthesized by using a model based on the carbodiimide method with both EDC and NHS reagents. 3MGA-HSA was also prepared using the same method, and was used for ELISA. We also evaluated the hapten number of the 3MGA-HSA conjugate by MALDI-TOF MS analysis. […] The MAb was developed by using the same methods described in our previous study. Hybridomas secreting antibodies recognizing 3MGA were selected by ELISA and then subcloned 4 times by the limited dilution method. […] The heavy chain of the obtained MAb was classified using a Calbiochem mouse hybridoma subisotyping kit (EMD Biosciences, Darmstadt, Germany), whereas the light chain was estimated using an IsoQuick^TM mouse monoclonal isotyping strip (Sigma) according to the manufacturer’s instructions.
3MGA-HSA (1 µg/ml in 50 mM carbonate buffer, pH 9.6) was added into a 96-well plate (Nagel Nunc, Penfield, NY, USA) (100 µl/well), and incubated at 37 °C for 1 h. After the removal of 3MGA-HSA, the wells were washed with 200 µl/well PBS containing 0.05% Tween 20 (T-PBS) for 3 times. The wells were incubated with 300 µl/well of 5% skim milk (Morinaga-milk, Tokyo, Japan) at 4 °C overnight. […] After the wells were washed with T-PBS 3 times, HRP-labeled goat anti-mouse IgG (Fc specific) antibody (1:1,000 dilution with T-PBS) was added into the wells (100 µl/well), and the plate was incubated at 37 °C for 1 h. Next, the wells were washed with T-PBS 3 times, the substrate solution (0.006% H2O2 in 200 mM citrate buffer, pH 4.0/H2O/0.6 mg/ml ABTS 10:9:1) was added into the wells (100 µl/well), and incubated at room temperature for 15 min.

[2] = biological target: T1, OAT3 (Homo sapiens, UniProt Q8TCC7); settings: cited from earlier work
T1 construct: expressed in transfected cells
T1 sequence (Q8TCC7 1-542): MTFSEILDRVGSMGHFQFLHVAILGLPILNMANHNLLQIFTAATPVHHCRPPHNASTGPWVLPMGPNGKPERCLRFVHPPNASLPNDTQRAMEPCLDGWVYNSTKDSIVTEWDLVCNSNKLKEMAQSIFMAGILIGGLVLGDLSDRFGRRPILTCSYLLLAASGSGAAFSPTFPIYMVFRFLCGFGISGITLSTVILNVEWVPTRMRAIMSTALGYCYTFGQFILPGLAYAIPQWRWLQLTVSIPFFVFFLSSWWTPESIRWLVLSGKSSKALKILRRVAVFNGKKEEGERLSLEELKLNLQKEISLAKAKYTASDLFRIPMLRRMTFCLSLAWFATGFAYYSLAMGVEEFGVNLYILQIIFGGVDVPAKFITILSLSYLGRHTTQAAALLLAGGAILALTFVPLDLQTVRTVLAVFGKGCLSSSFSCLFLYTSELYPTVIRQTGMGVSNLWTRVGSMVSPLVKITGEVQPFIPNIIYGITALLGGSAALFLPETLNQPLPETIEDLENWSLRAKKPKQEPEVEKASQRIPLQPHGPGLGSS

[3] = biological target: T2, rat 11β-HSD2 (Rattus norvegicus, UniProt P50233); settings: previous study; cited from earlier work
T2 construct: kidney microsome fractions were obtained from male Wistar rats (7-week-old); from tissue; host or cells: rat kidney microsome fraction (male Wistar rats)
T2 sequence (P50233 1-400): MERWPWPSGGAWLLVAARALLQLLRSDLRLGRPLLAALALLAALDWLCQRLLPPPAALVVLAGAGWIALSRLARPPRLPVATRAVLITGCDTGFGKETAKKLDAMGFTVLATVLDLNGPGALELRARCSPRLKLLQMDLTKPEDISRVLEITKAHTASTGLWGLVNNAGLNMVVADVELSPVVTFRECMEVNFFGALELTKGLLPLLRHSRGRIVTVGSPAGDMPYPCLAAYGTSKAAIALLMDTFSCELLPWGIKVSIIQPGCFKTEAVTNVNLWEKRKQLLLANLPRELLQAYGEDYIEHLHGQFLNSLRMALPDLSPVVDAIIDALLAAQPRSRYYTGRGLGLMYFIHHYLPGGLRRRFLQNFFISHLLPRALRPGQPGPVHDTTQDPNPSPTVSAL

[4] = pharmacokinetic profile of 3MGA in EHBRs orally treated with GA (50 mg/kg); type: in vivo; settings: Eisai Hyperbilirubinemia rats (EHBR), rat, plasma; female EHBRs, GA 50 mg/kg oral; read-out: time of maximum plasma concentration
Protocol: Female EHBRs (8 or 9-week-old) were orally treated with GA (50 mg/kg) suspended in 0.5% CMC, and kept in metabolic cages. Blood samples (approximately 0.3 ml) were collected from the tail 1, 2, 3, 6, 12, 24, and 48 h after the oral treatment. Urine samples were collected 6, 12, 24, and 48 h after the oral treatment. The concentrations of 3MGA in the samples were measured by both ELISA and LC-MS/MS described in our previous paper. Ten µl aliquots of plasma or urine from rats treated with GA, or standard solution of 3MGA in plasma or urine collected from normal rats were mixed with 20 µl of 1:1,000 diluted subtilisin, and incubated at 37 °C for 30 min. After adding 70 µl of EtOH containing 10 µg/ml of PHB used as internal standard, the solution was applied into the system. The mass spectrometer used an electrospray ionization source in the positive ion mode with multiple reaction monitoring (ESI(+)MS-MRM). The analytical column was an Inertsil ODS-4, 2 mm i.d. ×75 mm, 3 µm (GL Sciences Inc., Tokyo, Japan). […] The transitions (precursor to daughter) monitored and retention times were 647.4 to 453.5 m/z for 3MGA (4.4 min) and 195.2 to 139.0 m/z for PHB (4.8 min). […]

[5] = biological target: T3, OAT1 (Homo sapiens, UniProt Q4U2R8); settings: cited from earlier work
T3 construct: expressed in transfected cells
T3 sequence (Q4U2R8 1-563): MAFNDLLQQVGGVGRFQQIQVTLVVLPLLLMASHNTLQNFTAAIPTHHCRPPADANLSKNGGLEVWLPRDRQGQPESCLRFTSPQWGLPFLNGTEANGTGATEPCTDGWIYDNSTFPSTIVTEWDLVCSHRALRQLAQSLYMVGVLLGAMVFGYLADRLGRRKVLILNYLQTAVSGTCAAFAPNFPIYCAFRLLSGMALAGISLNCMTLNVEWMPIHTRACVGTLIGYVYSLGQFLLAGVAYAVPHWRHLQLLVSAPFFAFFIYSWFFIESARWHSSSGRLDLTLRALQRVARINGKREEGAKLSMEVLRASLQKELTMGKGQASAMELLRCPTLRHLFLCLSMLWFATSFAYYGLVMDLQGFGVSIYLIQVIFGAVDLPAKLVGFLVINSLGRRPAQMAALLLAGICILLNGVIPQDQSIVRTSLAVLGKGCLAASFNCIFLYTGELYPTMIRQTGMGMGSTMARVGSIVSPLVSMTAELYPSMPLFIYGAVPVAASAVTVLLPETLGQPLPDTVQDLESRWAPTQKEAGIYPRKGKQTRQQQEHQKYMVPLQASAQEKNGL

[6] = tested on: CYP2C19; set-up: method as in PMID 26712778, PMID 22943175; settings: competitive inhibitor; cited from earlier work
[7] = tested on: CYP3A4; set-up: method as in PMID 26712778, PMID 22943175; settings: competitive inhibitor; cited from earlier work
[8] = tested on: CYP2C9; set-up: method as in PMID 26712778, PMID 22943175; settings: competitive inhibitor; cited from earlier work
[9] = concentrations in pooled plasma of EHBRs 12 h after oral GA (200 mg/kg); type: in vivo; settings: Eisai Hyperbilirubinemia rats (EHBR), rat
Protocol: Three female and three male EHBRs (9-week-old, respectively) were injected with urethane (1 g/kg, i.p.), and orally treated with an aqueous GA aqueous suspension (200 mg/kg in 1% CMC). Twelve h after the treatment, blood was collected from the abdominal vena cava, and the plasma samples of each sex rat were pooled.
(§1) LC-ESI(+)MS/MS analysis was conducted at the following conditions: column, Scherzo SM-C18 (3 μm, 3 mm i.d. ×100 mm, Imtakt, Kyoto, Japan); mobile phase, (A) 5 mM AcNH4, (B) 125 mM AcNH4/acetonitrole 1:4, at a flow rate of 0.3 ml/min, with the following gradient profile: A:B = 50:50–0:100 (0–3 min) and 0:100 (3–10 min); compound 1 (5.8 min), astragaloside IV (3.0 min), GA (8.7 min); the transitions monitored were the same as described in the previous section. Linear regressions over the concentration range 0.08–2 µM for compound 1 and 3.2 nM–2 µM for GA were examined using the peak-area ratio of the compounds to their internal standards and the least-squares method (r^2 > 0.98).

[10] = pharmacokinetics in EHBRs orally treated with GA (200 mg/kg), LC-MS/MS; type: in vivo, Eisai Hyperbilirubinemia rats (EHBRs); settings: Eisai Hyperbilirubinemia rats (EHBR), rat, plasma; female EHBRs, GA 200 mg/kg oral, 12 h; read-out: plasma concentration 12 h after GA treatment
Protocol: Female SD rats or EHBRs (9-week-old) were anesthetized by an intraperitoneal (i.p.) injection of urethane (1 g/kg) and their jugular veins were exposed. […] Aliquots (10 µl) of plasma or urine were mixed with 20 µl of subtilisin (0.91 U/ml), incubated at 37 °C for 30 min, followed by the addition of 70 µl of astragalloside IV solution (1 µg/ml in ethanol containing 0.5% formic acid), and kept at −20 °C for 30 min.

[11] = tested on: rat kidney slices; assay: uptake by rat kidney slices; type: in vitro ADME; settings: pooled plasma of female EHBRs, pH 5.5, 2 h
Protocol: Female SD rats (9-week-old) were treated with urethane (1 g/kg, i.p.), and their kidneys were collected. After removal of the capsule, the kidneys were sliced at approximately 0.5-mm thickness in the frontal section of the organ, using a tissue slicer (Natsume Seisakusyo, Tokyo, Japan) and then cut at the renal hilus into two halves. The slices were pre-incubated at either 4 or 37 °C for 15 min in 24-well plates with 0.3 ml of the incubation medium (137 mM NaCl, 5.4 mM KCl, 0.95 mM CaCl2, 0.81 mM MgSO4, 0.44 mM KH2PO4, 0.25 mM Na2HPO4, 5.5 mM glucose, 10 mM MES, adjusted to pH 5.5). Five ml of pooled female EHBR plasma samples was lyophilized, and dissolved in 5 ml of the incubation medium. […] After washing with PBS three times, the kidney slices were homogenated in PBS using sonication, and the concentrations of protein were measured as mentioned above. […]
as §1, with “Linear regressions over the concentration range 0.08–2 µM for compound 1 and 3.2 nM–2 µM for GA were examined using the peak-area ratio of the compounds to their internal standards and the least-squares method (r^2 > 0.98).” left out

Tmax [4] | concentration at 12 h ([9]; female, read-out: concentration in pooled plasma, female EHBRs) | concentration at 12 h ([9]; male, read-out: concentration in pooled plasma, male EHBRs) | concentration at 12 h [10] | uptake by kidney slices at 37 °C compared with 4 °C [11] | Compound | cross-reactivity of anti-3MGA MAb [1] | substrate of OAT3 [2] | IC50 [3] | substrate of OAT1 [5] | IC50 [6] | IC50 [7] | IC50 [8]
6 h | – | – | – | – | CC1(C)[C@@H](O[C@@H]2O[C@H](C(=O)O)[C@@H](O)[C@H](O)[C@H]2O)CC[C@]2(C)[C@H]3C(=O)C=C4[C@@H]5C[C@@](C)(C(=O)O)CC[C@]5(C)CC[C@@]4(C)[C@]3(C)CC[C@@H]12 [Compound 3MGA, 3-monoglucuronyl glycyrrhetinic acid] | 100% | is a substrate | 0.26 µM | is a substrate | – | – | –
– | 7 µM | 3.2 µM | 5.9 µM | similar | CC1(C)[C@@H](O)CC[C@]2(C)[C@H]3C(=O)C=C4[C@@H]5C[C@@](C)(C(=O)O)CC[C@]5(C)CC[C@@]4(C)[C@]3(C)CC[C@@H]12 [GA, 18β-glycyrrhetinic acid] | 1.04% | – | – | – | 41 to 74 µM | 8.2 to 14 µM | 33 to 43 µM
